What was measured:
rice flat sedge = test: Test Example 3: herbicidal effect by foliage application, Wagner pot (Table 18, symbol E); assay type: in vivo, rice flat sedge (Cyperus iria); conditions: amount of applied herbicide 320 g/ha
In short: (§1)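 Plants were sown in alluvial soil held under 0.1–0.5 cm standing water and grown 14 days in a greenhouse at 25–30 °C. An emulsifiable formulation, water-diluted to the set dose, was then sprayed onto the foliage, and effects were scored three weeks later using previously defined criteria.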

velvetleaf [1] = test: Test Example 5: herbicidal effect by foliage application, plastic box (Table 20, symbol M); assay type: in vivo, velvetleaf (Abutilon theophrasti); conditions: foliage application, 320 g/ha, evaluated three weeks after application
In short: (§2)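 Plants were sown into sterilized diluvial soil under about 1.5 cm cover and kept in a greenhouse at 25° C. to 30° C. Fourteen days on, foliage received an even spray of the diluted emulsion. Herbicidal or crop effect was judged three weeks afterwards.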

velvetleaf [2] = test: Test Example 4: herbicidal effect by soil treatment (Table 19, symbol M); assay type: in vivo, velvetleaf (Abutilon theophrasti); conditions: amount of applied herbicide 320 g/ha
In short: (§3)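 In this soil treatment, the formulated compound reached the seeds only through the soil: seeds were buried about 1.5 cm deep in sterilized diluvial soil, then the diluted emulsion was sprayed over the surface. After three weeks at 25° C. to 30° C. in a greenhouse, effects were graded on criteria from an earlier test.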

windgrass [3] = test: Test Example 5: herbicidal effect by foliage application, plastic box (Table 20, symbol L); assay type: in vivo, windgrass (Apera spica-venti); conditions: foliage application, 320 g/ha, evaluated three weeks after application
In short: as §2

southern crabgrass [4] = test: Test Example 4: herbicidal effect by soil treatment (Table 19, symbol F); assay type: in vivo, southern crabgrass (Digitaria ciliaris); conditions: amount of applied herbicide 320 g/ha
In short: as §3

Chinese sprangletop = test: Test Example 3: herbicidal effect by foliage application, Wagner pot (Table 18, symbol D); assay type: in vivo, chinese sprangletop (Leptochloa chinensis); conditions: amount of applied herbicide 320 g/ha
In short: as §1

green foxtail [5] = test: Test Example 5: herbicidal effect by foliage application, plastic box (Table 20, symbol G); assay type: in vivo, green foxtail (Setaria viridis); conditions: foliage application, 320 g/ha, evaluated three weeks after application
In short: as §2

late watergrass = test: Test Example 1: herbicidal activity, application before weed generation under submerged conditions (Table 16, symbol A); assay type: in vivo, late watergrass (Echinochloa oryzicola); conditions: 320 g/ha applied herbicide
In short: (§4)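 Emulsion formulation, water-diluted to set dose, was put onto the flooded surface (4 cm depth, alluvial soil) the same day weeds were sown and 2.5-leaf rice transplanted. After 3 weeks at 25-30 °C under glass, each species was rated 0 (≤5% kill) to 5 (≥90% kill).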

Italian ryegrass [6] = test: Test Example 4: herbicidal effect by soil treatment (Table 19, symbol K); assay type: in vivo, Italian ryegrass (Lolium multiflorum); conditions: amount of applied herbicide 320 g/ha
In short: as §3

persian speedwell [7] = test: Test Example 5: herbicidal effect by foliage application, plastic box (Table 20, symbol R); assay type: in vivo, Persian speedwell (Veronica persica); conditions: foliage application, 320 g/ha, evaluated three weeks after application
In short: as §2

barnyard grass [8] = test: Test Example 3: herbicidal effect by foliage application, Wagner pot (Table 18, symbol H); assay type: in vivo, barnyard grass (Echinochloa crus-galli); conditions: amount of applied herbicide 320 g/ha
In short: as §1

windgrass [9] = test: Test Example 4: herbicidal effect by soil treatment (Table 19, symbol L); assay type: in vivo, windgrass (Apera spica-venti); conditions: amount of applied herbicide 320 g/ha
In short: as §3

southern crabgrass [10] = test: Test Example 5: herbicidal effect by foliage application, plastic box (Table 20, symbol F); assay type: in vivo, southern crabgrass (Digitaria ciliaris); conditions: foliage application, 320 g/ha, evaluated three weeks after application
In short: as §2

redroot pigweed [11] = test: Test Example 4: herbicidal effect by soil treatment (Table 19, symbol N); assay type: in vivo, redroot pigweed (Amaranthus retroflexus); conditions: amount of applied herbicide 320 g/ha
In short: as §3

Italian ryegrass [12] = test: Test Example 5: herbicidal effect by foliage application, plastic box (Table 20, symbol K); assay type: in vivo, Italian ryegrass (Lolium multiflorum); conditions: foliage application, 320 g/ha, evaluated three weeks after application
In short: as §2

barnyard grass [13] = test: Test Example 4: herbicidal effect by soil treatment (Table 19, symbol H); assay type: in vivo, barnyard grass (Echinochloa crus-galli); conditions: amount of applied herbicide 320 g/ha
In short: as §3

wild oat [14] = test: Test Example 5: herbicidal effect by foliage application, plastic box (Table 20, symbol I); assay type: in vivo, wild oat (Avena fatua); conditions: foliage application, 320 g/ha, evaluated three weeks after application
In short: as §2

blackgrass [15] = test: Test Example 4: herbicidal effect by soil treatment (Table 19, symbol J); assay type: in vivo, blackgrass (Alopecurus myosuroides); conditions: amount of applied herbicide 320 g/ha
In short: as §3

chickweed [16] = test: Test Example 5: herbicidal effect by foliage application, plastic box (Table 20, symbol P); assay type: in vivo, common chickweed (Stellaria media); conditions: foliage application, 320 g/ha, evaluated three weeks after application
In short: as §2

lambsquarters [17] = test: Test Example 4: herbicidal effect by soil treatment (Table 19, symbol O); assay type: in vivo, lambsquarters (Chenopodium album); conditions: amount of applied herbicide 320 g/ha
In short: as §3

redroot pigweed [18] = test: Test Example 5: herbicidal effect by foliage application, plastic box (Table 20, symbol N); assay type: in vivo, redroot pigweed (Amaranthus retroflexus); conditions: foliage application, 320 g/ha, evaluated three weeks after application
In short: as §2

green foxtail [19] = test: Test Example 4: herbicidal effect by soil treatment (Table 19, symbol G); assay type: in vivo, green foxtail (Setaria viridis); conditions: amount of applied herbicide 320 g/ha
In short: as §3

barnyard grass [20] = test: Test Example 5: herbicidal effect by foliage application, plastic box (Table 20, symbol H); assay type: in vivo, barnyard grass (Echinochloa crus-galli); conditions: foliage application, 320 g/ha, evaluated three weeks after application
In short: as §2

wild oat [21] = test: Test Example 4: herbicidal effect by soil treatment (Table 19, symbol I); assay type: in vivo, wild oat (Avena fatua); conditions: amount of applied herbicide 320 g/ha
In short: as §3

blackgrass [22] = test: Test Example 5: herbicidal effect by foliage application, plastic box (Table 20, symbol J); assay type: in vivo, blackgrass (Alopecurus myosuroides); conditions: foliage application, 320 g/ha, evaluated three weeks after application
In short: as §2

oval-leafed pondweed = test: Test Example 1: herbicidal activity, application before weed generation under submerged conditions (Table 16, symbol C); assay type: in vivo, oval-leafed pondweed (Monochoria vaginalis); conditions: 320 g/ha applied herbicide
In short: as §4

persian speedwell [23] = test: Test Example 4: herbicidal effect by soil treatment (Table 19, symbol R); assay type: in vivo, Persian speedwell (Veronica persica); conditions: amount of applied herbicide 320 g/ha
In short: as §3

lambsquarters [24] = test: Test Example 5: herbicidal effect by foliage application, plastic box (Table 20, symbol O); assay type: in vivo, lambsquarters (Chenopodium album); conditions: foliage application, 320 g/ha, evaluated three weeks after application
In short: as §2

chickweed [25] = test: Test Example 4: herbicidal effect by soil treatment (Table 19, symbol P); assay type: in vivo, common chickweed (Stellaria media); conditions: amount of applied herbicide 320 g/ha
In short: as §3

Japanese bulrush = test: Test Example 1: herbicidal activity, application before weed generation under submerged conditions (Table 16, symbol B); assay type: in vivo, Japanese bulrush (Schoenoplectus juncoides); conditions: 320 g/ha applied herbicide
In short: as §4

Row | Compound | herbicidal effect on E: rice flat sedge (rice flat sedge) | herbicidal effect on M: velvetleaf (criteria 0-5) (velvetleaf [1]) | herbicidal effect on L: windgrass (criteria 0-5) (windgrass [3]) | herbicidal effect on D: Chinese sprangletop (Chinese sprangletop) | herbicidal effect on G: green foxtail (criteria 0-5) (green foxtail [5]) | Herbicidal effect on A: late watergrass (grade 0-5) (late watergrass) | herbicidal effect on R: persian speedwell (criteria 0-5) (persian speedwell [7]) | herbicidal effect on H: barnyard grass (barnyard grass [8]) | herbicidal effect on F: southern crabgrass (criteria 0-5) (southern crabgrass [10]) | herbicidal effect on K: Italian ryegrass (criteria 0-5) (Italian ryegrass [12]) | herbicidal effect on I: wild oat (criteria 0-5) (wild oat [14]) | herbicidal effect on P: chickweed (criteria 0-5) (chickweed [16]) | herbicidal effect on N: redroot pigweed (criteria 0-5) (redroot pigweed [18]) | herbicidal effect on H: barnyard grass (criteria 0-5) (barnyard grass [20]) | herbicidal effect on J: blackgrass (criteria 0-5) (blackgrass [22]) | Herbicidal effect on C: oval-leafed pondweed (grade 0-5) (oval-leafed pondweed) | herbicidal effect on O: lambsquarters (criteria 0-5) (lambsquarters [24]) | Herbicidal effect on B: Japanese bulrush (grade 0-5) (Japanese bulrush) | further results
1 | CCCOc1cccc(-c2sc3ccc(F)cc3c2-c2c(O)c(C)nn(C)c2=O)c1 [2-213] | 3 (Herbicidal rate of 40% or more and less than 70%) | 1 (Herbicidal rate of 5% or more and less than 20%) | 4 (Herbicidal rate of 70% or more and less than 90%) | 3 (Herbicidal rate of 40% or more and less than 70%) | 4 (Herbicidal rate of 70% or more and less than 90%) | 3 (Herbicidal rate of 40% or more and less than 70%) | 5 (Herbicidal rate of 90% or more (almost completely withered)) | 4 (Herbicidal rate of 70% or more and less than 90%) | 5 (Herbicidal rate of 90% or more (almost completely withered)) | 4 (Herbicidal rate of 70% or more and less than 90%) | 0 (Herbicidal rate of 5% or less (almost no effect)) | 5 (Herbicidal rate of 90% or more (almost completely withered)) | 5 (Herbicidal rate of 90% or more (almost completely withered)) | 3 (Herbicidal rate of 40% or more and less than 70%) | 3 (Herbicidal rate of 40% or more and less than 70%) | 0 (Herbicidal rate of 5% or less (almost no effect)) | 4 (Herbicidal rate of 70% or more and less than 90%) | 0 (Herbicidal rate of 5% or less (almost no effect)) | M: velvetleaf, herbicidal effect rating (velvetleaf [2]): 0 (Herbicidal rate of 5% or less (almost no effect)); F: southern crabgrass, herbicidal effect rating (southern crabgrass [4]): 5 (Herbicidal rate of 90% or more (almost completely withered)); K: Italian ryegrass, herbicidal effect rating (Italian ryegrass [6]): 4 (Herbicidal rate of 70% or more and less than 90%); L: windgrass, herbicidal effect rating (windgrass [9]): 0 (Herbicidal rate of 5% or less (almost no effect)); N: redroot pigweed, herbicidal effect rating (redroot pigweed [11]): 5 (Herbicidal rate of 90% or more (almost completely withered)); H: barnyard grass, herbicidal effect rating (barnyard grass [13]): 3 (Herbicidal rate of 40% or more and less than 70%); J: blackgrass, herbicidal effect rating (blackgrass [15]): 0 (Herbicidal rate of 5% or less (almost no effect)); O: lambsquarters, herbicidal effect rating (lambsquarters [17]): 1 (Herbicidal rate of 5% or more and less than 20%); G: green foxtail, herbicidal effect rating (green foxtail [19]): 4 (Herbicidal rate of 70% or more and less than 90%); I: wild oat, herbicidal effect rating (wild oat [21]): 0 (Herbicidal rate of 5% or less (almost no effect)); R: persian speedwell, herbicidal effect rating (persian speedwell [23]): 5 (Herbicidal rate of 90% or more (almost completely withered)); P: chickweed, herbicidal effect rating (chickweed [25]): 3 (Herbicidal rate of 40% or more and less than 70%)
2 | CCCCCCOc1cccc(-c2sc3ccc(F)cc3c2-c2c(O)c(C)nn(C)c2=O)c1 [2-226] | 3 (Herbicidal rate of 40% or more and less than 70%) | 4 (Herbicidal rate of 70% or more and less than 90%) | 5 (Herbicidal rate of 90% or more (almost completely withered)) | 3 (Herbicidal rate of 40% or more and less than 70%) | 0 (Herbicidal rate of 5% or less (almost no effect)) | 2 (Herbicidal rate of 20% or more and less than 40%) | 0 (Herbicidal rate of 5% or less (almost no effect)) | 4 (Herbicidal rate of 70% or more and less than 90%) | 0 (Herbicidal rate of 5% or less (almost no effect)) | 0 (Herbicidal rate of 5% or less (almost no effect)) | 0 (Herbicidal rate of 5% or less (almost no effect)) | 4 (Herbicidal rate of 70% or more and less than 90%) | 5 (Herbicidal rate of 90% or more (almost completely withered)) | 0 (Herbicidal rate of 5% or less (almost no effect)) | 0 (Herbicidal rate of 5% or less (almost no effect)) | 0 (Herbicidal rate of 5% or less (almost no effect)) | 4 (Herbicidal rate of 70% or more and less than 90%) | 0 (Herbicidal rate of 5% or less (almost no effect)) | herbicidal effect on M: velvetleaf (velvetleaf [2]): 0 (Herbicidal rate of 5% or less (almost no effect)); herbicidal effect on F: southern crabgrass (southern crabgrass [4]): 0 (Herbicidal rate of 5% or less (almost no effect)); herbicidal effect on K: Italian ryegrass (Italian ryegrass [6]): 0 (Herbicidal rate of 5% or less (almost no effect)); herbicidal effect on L: windgrass (windgrass [9]): 0 (Herbicidal rate of 5% or less (almost no effect)); herbicidal effect on N: redroot pigweed (redroot pigweed [11]): 3 (Herbicidal rate of 40% or more and less than 70%); herbicidal effect on H: barnyard grass (barnyard grass [13]): 0 (Herbicidal rate of 5% or less (almost no effect)); herbicidal effect on J: blackgrass (blackgrass [15]): 0 (Herbicidal rate of 5% or less (almost no effect)); herbicidal effect on O: lambsquarters (lambsquarters [17]): 0 (Herbicidal rate of 5% or less (almost no effect)); herbicidal effect on G: green foxtail (green foxtail [19]): 0 (Herbicidal rate of 5% or less (almost no effect)); herbicidal effect on I: wild oat (wild oat [21]): 0 (Herbicidal rate of 5% or less (almost no effect)); herbicidal effect on R: persian speedwell (persian speedwell [23]): 0 (Herbicidal rate of 5% or less (almost no effect)); herbicidal effect on P: chickweed (chickweed [25]): 0 (Herbicidal rate of 5% or less (almost no effect))

— patent US20230085307A1, “PYRIDAZINONE COMPOUND AND HERBICIDE” (NISSAN CHEMICAL CORPORATION, priority 2019, published 2023)
